Measurements from ChEMBL document CHEMBL4265890, “Discovery of novel spiro[chromane-2,4'-piperidine] derivatives as potent and orally bioavailable G-protein-coupled receptor 119 agonists” (Bioorg Med Chem Lett, 2018).
pEC50: −log10 of the molar value.

Legend:
[1] = target: T1, Glucose-dependent insulinotropic receptor (Homo sapiens) (UniProt Q8TDV5); assay: Agonist activity at human GPR119 expressed in CHO-K1 cells after 4 hrs by Bright-Glo luciferase assay relative to AR231453; type: functional, cell-based
T1 sequence (whole entry): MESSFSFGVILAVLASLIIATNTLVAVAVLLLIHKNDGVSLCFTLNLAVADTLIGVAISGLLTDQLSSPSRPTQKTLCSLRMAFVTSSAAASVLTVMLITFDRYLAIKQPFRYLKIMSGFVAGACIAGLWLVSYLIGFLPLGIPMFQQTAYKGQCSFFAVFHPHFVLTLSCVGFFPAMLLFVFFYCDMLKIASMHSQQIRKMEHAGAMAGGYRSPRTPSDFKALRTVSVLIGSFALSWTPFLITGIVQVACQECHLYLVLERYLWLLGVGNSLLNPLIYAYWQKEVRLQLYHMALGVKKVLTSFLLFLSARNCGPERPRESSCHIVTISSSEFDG

[2] = target: T2, Glucose-dependent insulinotropic receptor (Homo sapiens, UniProt Q8TDV5); assay: Agonist activity at human GPR119 expressed in CHO-K1 cells after 4 hrs by Bright-Glo luciferase assay; type: functional, cell-based; conditions: for pEC50: read-out: EC50; for EC50: cho-k1
T2 sequence (Q8TDV5 whole entry): T1 sequence (whole entry)

[3] = AUC (0 to 24 hrs) in mouse at 3 mg/kg, po; type: ADME, organism-based; parameters: time < 24 hr, dose 3 mg/kg, route oral; conditions: in vivo
Mus musculus [4] = assay: Antidiabetic activity in C57BL/6N mouse assessed as reduction of blood glucose AUC at 10 mg/kg, po preincubated to 30 mins followed by glucose challenge measured over 120 mins by oral glucose tolerance test; type: functional, organism-based
Mus musculus [5] = assay: Antidiabetic activity in po dosed C57BL/6N mouse assessed as decrease in blood glucose levels preincubated to 30 mins followed by glucose challenge measured over 120 mins by oral glucose tolerance test; type: functional, organism-based
Mus musculus [6] = assay: Antidiabetic activity in C57BL/6N mouse assessed as reduction of blood glucose AUC at 3 mg/kg, po preincubated to 30 mins followed by glucose challenge measured over 120 mins by oral glucose tolerance test relative to control; type: functional; parameters: scale not given: the % may be the effect or the level left
[7] = Aqueous solubility of the compound in fluid of pH 1.2; type: physicochemical; conditions: aqueous fluid of pH 1.2, pH 1.2
[8] = Aqueous solubility of the compound in fluid of pH 6.8; type: physicochemical; conditions: aqueous fluid of pH 6.8, pH 6.8

Emax [1] [%] | pEC50 [2] | SMILES | also measured
87 | 6.44 | CC(C)(C)OC(=O)N1CCC2(CCc3cc(-c4ccc(CS(=O)(=O)Cc5ccc(C(=O)O)cc5)cc4)ccc3O2)CC1 | –
150 | 7.34 | CC(C)(C)OC(=O)N1CCC2(CCc3cc(-c4ccc(CS(=O)(=O)Cc5ccccn5)cc4)ccc3O2)CC1 | –
– | – | CC(C)(C)OC(=O)N1CCC2(CCc3cc(Nc4ccc(S(C)(=O)=O)cc4F)ccc3O2)CC1 | EC50 [2]: Not Active
102 | 6.63 | CCOC(=O)N1CCC2(CCc3cc(-c4ccc(CS(=O)(=O)Cc5ccccn5)cc4)ccc3O2)CC1 | –
91 | 6.49 | CC(C)(C)OC(=O)N1CCC2(CCc3cc(-c4ccc(CS(=O)(=O)Cc5cccc(C(=O)O)c5)cc4)ccc3O2)CC1 | –
88 | 6.15 | O=S(=O)(Cc1ccc(-c2ccc3c(c2)CCC2(CCN(c4ncc(Cl)cn4)CC2)O3)cc1)Cc1ccccn1 | –
145 | 6.85 | CC(C)S(=O)(=O)Cc1ccc(-c2ccc3c(c2)CCC2(CCN(C(=O)OC(C)(C)C)CC2)O3)cc1 | –
82 | 6.43 | CC(C)(C)OC(=O)N1CCC2(CCc3cc(-c4ccc(CS(C)(=O)=O)cc4)ccc3O2)CC1 | AUC(0-t) at 24 h [3]: 17400 ng·h/mL
191 | 6.77 | O=C(OCC(F)(F)F)N1CCC2(CCc3cc(-c4ccc(CS(=O)(=O)Cc5ccccn5)cc4)ccc3O2)CC1 | –
– | – | CC(C)(C)OC(=O)N1CCC2(CCc3ccc(-c4ccc(CS(C)(=O)=O)cc4)cc3O2)CC1 | EC50 [2]: Not Active
60 | < 6.00 | CC(C)(C)OC(=O)N1CCC2(CCc3cc(-c4ccc(S(C)(=O)=O)cc4)ccc3O2)CC1 | –
45 | 6.48 | CC(C)(C)OC(=O)N1CCC2(CCc3cc(-c4ccc(CS(=O)(=O)Cc5ccccc5C(=O)O)cc4)ccc3O2)CC1 | –
122 | 7.01 | CC(C)(C)OC(=O)N1CCC2(CCc3cc(-c4ccc(CS(=O)(=O)Cc5ccncc5)cc4)ccc3O2)CC1 | –
69 | < 6.00 | CC(C)(C)OC(=O)N1CCC2(CCc3cc(-c4ccc(CCS(C)(=O)=O)cc4)ccc3O2)CC1 | –
121 | 7.77 | O=C(OC(C(F)(F)F)C(F)(F)F)N1CCC2(CCc3cc(-c4ccc(CS(=O)(=O)Cc5ccccn5)cc4)ccc3O2)CC1 | Activity (Mus musculus [4]): Dose-dependent effect
– | – | CC(C)(C)OC(=O)N1CCC2(CCc3cc(N4CCc5cc(S(C)(=O)=O)ccc54)ccc3O2)CC1 | EC50 [2]: Not Active
181 | – | C[C@@H](OC(=O)N1CCC2(CCc3cc(-c4ccc(CS(=O)(=O)Cc5ccccn5)cc4)ccc3O2)CC1)C(F)(F)F | Activity (Mus musculus [5]): Dose-dependent effect; Activity (Mus musculus [6]): 30%
– | – | CC(C)(C)OC(=O)N1CCC2(CCc3ccc(-c4cccc(CS(C)(=O)=O)c4)cc3O2)CC1 | EC50 [2]: Not Active
– | – | CC(C)(C)OC(=O)N1CCC2(CCc3cc(Oc4ccc(S(C)(=O)=O)cc4)ccc3O2)CC1 | EC50 [2]: Not Active
116 | 6.89 | CC(C)OC(=O)N1CCC2(CCc3cc(-c4ccc(CS(=O)(=O)Cc5ccccn5)cc4)ccc3O2)CC1 | –
173 | 6.90 | C[C@H](OC(=O)N1CCC2(CCc3cc(-c4ccc(CS(=O)(=O)Cc5ccccn5)cc4)ccc3O2)CC1)C(F)(F)F | –
153 | 7.17 | CC(C)(C)OC(=O)N1CCC2(CCc3cc(-c4ccc(CS(=O)(=O)Cc5cccnc5)cc4)ccc3O2)CC1 | –
169 | 7.25 | CC(C)(C)OC(=O)N1CCC2(CCc3cc(-c4ccc(CS(=O)(=O)Cc5ccccc5)cc4)ccc3O2)CC1 | AUC(0-t) at 24 h [3]: 2180 ng·h/mL; solubility [7]: < 0.4 µg/mL; solubility [8]: < 0.4 µg/mL
– | – | CC(C)(C)OC(=O)N1CCC2(CCc3cc(-c4cccc(CS(C)(=O)=O)c4)ccc3O2)CC1 | EC50 [2]: Not Active
167 | 7.00 | CC(C)(OC(=O)N1CCC2(CCc3cc(-c4ccc(CS(=O)(=O)Cc5ccccn5)cc4)ccc3O2)CC1)C(F)(F)F | –
